US6384080B1, “Anthranilic acid derivatives as inhibitors of the cGMP-phosphodiesterase” (Fujisawa Pharmaceutical Co., Ltd., priority 1998, dated 2002)
pIC50: −log10 of the molar value.

What was measured:
human platelet PDE-V = target: T1, human platelet PDE-V (Homo sapiens, UniProt O76074); assay: cGMP-Phosphodiesterase (PDE) assay, enzymatic inhibitory test; format: biochemical; conditions: human platelet PDE-V; 0.1 μM [3H]-cGMP substrate, 30° C., 10 minutes; read-out: Inhibitory activity IC50
T1 construct: Human platelet cGMP-PDE was separated from other isozymes in human platelets; from tissue; host or cells: human platelets
Procedure: cGMP-Phosphodiesterase (PDE) Assay
Human platelet cGMP-PDE was separated from other isozymes in human platelets by a modification of the method of Thompson et. al. (see Cyclic Nucleotide Phosphodiesterase (PDE), in Methods of Enzymatic analysis, Vol 4, p127-234, 1984). In enzyme inhibition assays, the test compounds were dissolved in DMSO and then diluted with assay buffer (50 mM Tris-HCl, 0.077 mg/ml dithiothreitol and 10 mg/ml snake venom, 1 mM EGTA, pH 8.0), at final concentrations ranging from 10^−10 to 10^−6 M. Assays were performed at 0.1 μM substrate ([^3H]-cGMP) concentration, at 30° C. for 10 minutes using enzyme dilutions which gave 10-20% hydrolysis of substrate. Each assay was initiated by addition of substrate and terminated by addition of anion exchange resin (Dowex® 1-X8, 250 mg/mg) followed by centrifugation for 10 minutes (3000 rpm, at 4° C.). Radioactivity of supernatant (^3H-GMP) was assayed by liquid scintillation counting.

Row | SMILES | melting point [°C] | pIC50 (human platelet PDE-V)
1 | COc1ccc(CNC(=O)c2cc([N+](=O)[O-])ccc2N[C@@H]2CCC[C@H]2O)cc1OC (relative stereo) [Example 67, N-(3,4-Dimethoxybenzyl)-2-(trans-2-hydroxycyclopentylamino)-5-nitrobenzamide] | 154 to 155 | –
2 | CC[C@@H](CO)Nc1ccc([N+](=O)[O-])cc1C(=O)NCc1ccc2c(c1)OCO2 [2(1), (S)-2-[1-(Hydroxymethyl)propylamino]-5-nitro-N-(1,3-benzodioxol-5-ylmethyl)benzamide] | 128 to 130 | –
3 | O=C(NCc1ccc(-c2ccccc2)cc1)c1cc([N+](=O)[O-])ccc1N[C@H]1CC[C@@H](O)CC1 [2-(cis-4-Hydroxycyclohexylamino)-5-nitro-N-(4-phenylbenzyl)benzamide] | 168 to 170 | > 8.00
4 | CCCCC(CO)Nc1ccc([N+](=O)[O-])cc1C(=O)NCc1ccc2c(c1)OCO2 (centres unmarked) [2-[1-(1-Hydroxymethyl)pentylamino]-5-nitro-N-(1,3-benzodioxol-5-ylmethyl)benzamide] | 112 to 115 | > 8.00
5 | COc1ccc(CNC(=O)c2cc([N+](=O)[O-])ccc2N[C@H]2CC[C@@H](OC(C)=O)CC2)cc1OC [2-[cis-4-(acetoxy)cyclohexylamino]-N-(3,4-dimethoxybenzyl)-5-nitrobenzamide] | 147 to 148 | > 8.00
6 | COc1ccc(CNC(=O)c2cc(C#N)ccc2N[C@@H](C)CO)cc1OC [88(1), (S)-5-Cyano-N-(3,4-dimethoxybenzyl)-2-(2-hydroxy-1-methylethylamino)benzamide] | 142 to 143.5 | –
7 | COc1ccc(CNC(=O)c2cc(S(=O)(=O)N3CCN(C(=O)OC(C)(C)C)CC3)ccc2N[C@H]2CC[C@H](O)CC2)cc1OC [153(1), 5-[4-(tert-Butoxycarbonyl)piperazin-1-ylsulfonyl]-N-(3,4-dimethoxybenzyl)-2-(trans-4-hydroxycyclohexylamino)benzamide] | 221 to 222 | –
8 | COc1ccc(CNC(=O)c2cc(S(=O)(=O)N3CCNCC3)ccc2N[C@H]2CC[C@H](O)CC2)cc1OC [153(2), N-(3,4-Dimethoxybenzyl)-2-(trans-4-hydroxycyclohexylamino)-5-(piperazinosulfonyl)benzamide] | 108 to 110 | –
9 | COc1ccc(CNC(=O)c2cc([N+](=O)[O-])ccc2NC2CC=CCC2)cc1F (centres unmarked) [153(3), 2-(3-cyclohexenylamino)-N-(3-fluoro-4-methoxybenzyl)-5-nitrobenzamide] | 140 | –
10 | C[C@H](CO)Nc1ccc([N+](=O)[O-])cc1C(=O)NCc1ccc(Oc2ccccc2)cc1 [(R)-2-(2-Hydroxy-1-methylethyl)amino-5-nitro-N-(4-phenoxybenzyl)benzamide] | 127 to 129 | > 8.00
11 | Cc1ccc(CNC(=O)c2cc([N+](=O)[O-])ccc2N[C@@H](C)CO)cc1Cl [(S)-N-(3-Chloro-4-methylbenzyl)-2-(2-hydroxy-1-methylethylamino)-5-nitrobenzamide] | 178 to 179 | > 8.00
12 | O=C(NCc1ccc2c(c1)OCO2)c1cc([N+](=O)[O-])ccc1N[C@H]1CC[C@H](O)CC1 [Example 1(1), 2-(trans-4-hydroxycyclohexylamino)-5-nitro-N-(1,3-benzodioxol-5-ylmethyl)benzamide] | 205 to 206 | –
13 | C[C@H](CO)Nc1ccc([N+](=O)[O-])cc1C(=O)NCc1ccc2c(c1)OCO2 [Example 7, (R)-2-(2-Hydroxy-1-methylethylamino)-5-nitro-N-(1,3-benzodioxol-5-ylmethyl)benzamide] | 166 to 168 | –
14 | O=C(NCc1ccccc1)c1cc([N+](=O)[O-])ccc1N[C@H]1CC[C@H](O)CC1 [Example 51, N-benzyl-2-(trans-4-hydroxycyclohexylamino)-5-nitrobenzamide] | 233 to 234 | –
15 | O=C(NCc1ccccc1)c1cc([N+](=O)[O-])ccc1NC(CO)CO [Example 55, N-Benzyl-2-[2-hydroxy-1-(hydroxymethyl)ethylamino]-5-nitrobenzamide] | 171 to 173 | –
16 | CC[C@@H](CO)Nc1ccc([N+](=O)[O-])cc1C(=O)NCc1ccc(OC)c(OC)c1 [Example 65, (S)-N-(3,4-Dimethoxybenzyl)-2-[1-(hydroxymethyl)-propylamino]-5-nitrobenzamide] | 168 to 169 | –
17 | COc1ccc(CNC(=O)c2cc([N+](=O)[O-])ccc2NC(C)(C)CO)cc1OC [Example 66, N-(3,4-Dimethoxybenzyl)-2-(2-hydroxy-1,1-dimethyl-ethylamino)-5-nitrobenzamide] | 161 to 162 | –
18 | COc1ccc(CNC(=O)c2cc([N+](=O)[O-])ccc2N[C@@H](C)CO)cc1OC [Example 68, (S)-N-(3,4-Dimethoxybenzyl)-2-(2-hydroxy-1-methyl-ethylamino)-5-nitrobenzamide] | 131 to 132 | –
19 | COc1ccc(CNC(=O)c2cc([N+](=O)[O-])ccc2NNCC(F)(F)F)cc1OC [Example 69, N-(3,4-Dimethoxybenzyl)-5-nitro-2-[2-(2,2,2-trifluoroethyl)hydrazino]benzamide] | 140 to 142 | –
20 | COc1ccc(CNC(=O)c2cc([N+](=O)[O-])ccc2Nc2ccc3[nH]cnc3c2)cc1OC [Example 80, 2-(1H-Benzimidazol-5-ylamino)-N-(3,4-dimethoxybenzyl)-5-nitrobenzamide] | 226.5 to 227 | –
21 | COc1ccc(CNC(=O)c2cc(-c3ncc[nH]3)ccc2N[C@H]2CC[C@H](O)CC2)cc1OC [Example 90, N-(3,4-Dimethoxybenzyl)-2-(trans-4-hydroxycyclohexylamino)-5-(1H-imidazol-2-yl)benzamide] | 189 to 190 | –
22 | COc1cc(CNC(=O)c2cc([N+](=O)[O-])ccc2NC(CO)CO)ccc1Cl [Example 91, N-(4-Chloro-3-methoxybenzyl)-2-[2-hydroxy-1-(hydroxymethyl)ethylamino]-5-nitrobenzamide] | 176 to 177 | –
23 | COc1cc(CNC(=O)c2cc(S(C)(=O)=O)ccc2N[C@H]2CC[C@H](O)CC2)ccc1Cl [Example 102, N-(4-Chloro-3-methoxybenzyl)-2-(trans-4-hydroxycyclohexylamino)-5-methanesulfonylbenzamide] | 234 to 235.5 | –
24 | COc1cc(CNC(=O)c2cc([N+](=O)[O-])ccc2N[C@@H](C)CO)cc(OC)c1 [Example 107, (S)-N-(3,5-Dimethoxybenzyl)-2-(2-hydroxy-1-methylethyl)amino-5-nitrobenzamide] | 98 to 101 | –
25 | Cc1ccc(CNC(=O)c2cc([N+](=O)[O-])ccc2N[C@H]2CC[C@@H](O)CC2)cc1C [N-(3,4-Dimethylbenzyl)-2-(cis-4-hydroxycyclohexylamino)-5-nitrobenzamide] | 157 to 158 | > 8.00
26 | COc1ccc(CNC(=O)c2cc([N+](=O)[O-])ccc2N[C@@H](CO)CCSC)cc1OC [N-(3,4-dimethoxylbenzyl)-2-[(R)-1-hydroxymethyl-3-(methylthio)propylamino]-5-nitrobenzamide] | 150 to 152 | > 8.00
27 | O=C(NCc1ccc(F)c(Cl)c1)c1cc([N+](=O)[O-])ccc1NC(CO)CO [N-(3-Chloro-4-fluorobenzyl)-2-[2-hydroxy-1-(hydroxymethyl)ethylamino]-5-nitrobenzamide] | 235 to 238 | > 8.00
